Each structure is given as a SMILES string. Like-named read-outs stand apart in the source and are kept apart here.

For test [1], the target named is T1, PDE4B1 (Homo sapiens, UniProt Q07343).
T1 construct: made in house; host or cells: SF21 insect cells (baculovirus; virus prepared in SF9 cells)
Nature of the test: Inhibition of PDE4B1 activity (SPA, [3H]cAMP). In kind it is biochemical. The following applies: recombinant PDE4B1, 0.5 μM cAMP; binned: below 8 / between 8 and 9; read-out: PDE4B1 inhibitory values measured as −logIC50 (converted). As for the experimental part: The PDE4B1 (GB no. L20966) was a gift of Prof. M. Conti (Stanford University, USA). It was amplified from the original plasmid (pCMV5) via PCR with primers Rb18 (5′-[…]-3′) and Rb10 (5′-[…]-3′) and cloned into the pCR-Bac vector (Invitrogen, Groningen, NL).
The recombinant baculovirus was prepared by means of homologous recombination in SF9 insect cells. The expression plasmids were cotransfected with Baculo-Gold DNA (Pharmingen, Hamburg) using a standard protocol (Pharmingen, Hamburg). Wt virus-free recombinant virus supernatants were selected using plaque assay methods. After that, high-titre virus supernatants were prepared by amplifying 3 times. PDE4B1 was expressed in SF21 cells by infecting 2×10^6 cells/ml with an MOI (multiplicity of infection) between 1 and 10 in the serum-free SF900 medium (GIBCO Life Technologies, Karlsruhe, Germany). The cells were cultured at 28° C. for 48-72 hours, after which they were pelleted for 5-10 min at 1000×g and 4° C.
The SF21 insect cells were resuspended, at a concentration of approx. 10^7 cells/ml, in ice-cold (4° C.) homogenization buffer (20 mM Tris, pH 8.2, containing the following additions: 140 mM NaCl, 3.8 mM KCl, 1 mM EGTA, 1 mM MgCl2, 10 mM β-mercaptoethanol, 2 mM benzamidine, 0.4 mM Pefablock, 10 μM leupeptin, 10 μM pepstatin A, 5 μM trypsin inhibitor) and disrupted by ultrasonication. The homogenate was then centrifuged for 10 min at 1000×g and the supernatant was stored at −80° C. until subsequent use (see below). The protein content was determined by the Bradford method (BioRad, Munich) using BSA (Bovine serum albumin) as the standard.
PDE4B1 activities were measured in a 96-well platform using SPA (scintillation proximity assay) yttrium silicate beads (RPNQ1050 from GE Healthcare). In a first step the PDE activity operated hydrolysis of either [^3H] cAMP (substrate) into [^3H] 5′AMP. In a second step substrate and product were distinguished following addition of SPA yttrium silicate beads. Indeed, in the presence of zinc sulphate the linear [^3H] […] Close proximity of bound [^3H] […] The test volume was 100 μl and finally contained 20 mM Tris buffer (pH 7.4), 0.1 mg/ml of BSA, 5 mM Mg^2+, 0.5 μM cAMP (including about 50,000 cpm of [3H]cAMP) as substrate, 1 μl of the respective substance dilution in DMSO and sufficient recombinant PDE (1000×g supernatant, see above) to ensure that 10-20% of the cAMP was converted under the said experimental conditions. […] After a preincubation of 5 min at 37° C., the reaction was commenced by adding the substrate (cAMP) and the assays were incubated for a further 15 min. Reactions were terminated by adding SPA beads (50 μl). In agreement with the manufacturer's instructions, the SPA beads had previously been resuspended in water, but were then diluted 1:3 (v/v) in water. This diluted solution further contained 3 mM IBMX (isobutylmethylxanthine) to ensure a complete block of PDE activity. Once the beads were sedimented (>30 min), the MTP's (microtiter plate) were analyzed in commercially available luminescence detection devices. The corresponding IC50 values of the compounds for inhibition of PDE4B1 activity were determined from the concentration-effect curves by means of non-linear regression.
For the following compounds PDE4B1 inhibitory values [measured as −logIC50 (mol/l)] below 8 and between 8 and 9 have been determined. The numbers of the compounds correspond to the numbers of the examples.

Test [2] concerns the target T2, human PDE5 (Homo sapiens, UniProt O76074).
T2 construct: from tissue; host or cells: human platelets from fresh donor blood (platelet lysate)
Nature of the test: Inhibition of PDE5 activity (SPA, [3H]cGMP, platelet lysate). The settings on record: 0.5 μM cGMP, binned: below 8 / between 8 and 9, read-out: PDE5 inhibitory values measured as −logIC50 (converted). The test is classed as biochemical. As to the method:
As a source for human PDE5, platelets were used. For that purpose, 150 ml fresh blood from human donors anticoagulated with citrate [final concentration 0.3% (w/v)] was centrifuged at 200 g for 10 min to obtain the so-called platelet-rich-plasma (PRP) as a supernatant. 1/10 volume of ACD solution (85 mM Na3-citrate, 111 mM D-glucose, 71 mM citric acid, pH 4.4) was added to 9/10 volume of PRP. After centrifugation (1,400 g, 10 min) the cell pellet was resuspended in 3 ml homogenization buffer (NaCl 140 mM, KCl 3.8 mM, EGTA (ethylene glycol tetraacetic acid) 1 mM, MgCl2 1 mM, Tris-HCl 20 mM, beta-mercaptoethanol 1 mM, pH 8.2) plus protease-inhibitor mix resulting in final concentrations of 0.5 mM Pefablock (Roche), 10 μM Leupeptin, 5 μM Trypsine inhibitor, 2 mM Benzamidin and 10 μM Pepstatin A. The suspension was sonicated and thereafter centrifuged for 15 min at 10,000 g. The resulting supernatant (platelet lysate) was used for enzymatic assays.
PDE5 activities were measured in a 96-well platform using SPA (scintillation proximity assay) yttrium silicate beads (RPNQ1050 from GE Healthcare). In a first step the PDE activity operated hydrolysis of either [^3H] cGMP (substrate) into [^3H] 5′GMP. In a second step substrate and product were distinguished following addition of SPA yttrium silicate beads. Indeed, in the presence of zinc sulphate the linear [^3H] […] Close proximity of bound [^3H] […] The test volume was 100 μl and contained 20 mM Tris buffer (pH 7.4), 0.1 mg of BSA (bovine serum albumin)/ml, 5 mM Mg^2+, 1 μM motapizone (PDE3 Inhibitor), 10 nM PDE2 inhibitor 2-(3,4-dimethoxybenzyl)-7-[(1R,2R)-2-hydroxy-1-(2-phenylethyl)propyl]-5-methylimidazo[5,1-f][1,2,4]triazin-4(3H)-one, 0.5 μM cGMP (cyclic guanosine monophosphate) (including about 50,000 cpm of [3H]cGMP as a tracer) (substrate), 1 μl of the respective compound dilution in dimethylsulfoxide (DMSO) and sufficient PDE5-containing platelet lysat (10,000×g supernatant, see above) to ensure that 10-20% of the cGMP was converted under the said experimental conditions. […] After a preincubation of 5 min at 37° C., the reaction was commenced by adding the substrate (cGMP) and the assay was incubated for a further 15 min. The reaction was terminated by adding SPA beads (50 μl). In agreement with the manufacturer's instructions, the SPA beads had previously been resuspended in water, but were then diluted 1:3 (v/v) in water. This diluted solution also contained 3 mM 8-methoxymethyl-3-isobutyl-1-methylxanthine (IBMX) to ensure a complete block of PDE activity. Once the beads were sedimented (>30 min), the MTP's were analyzed in commercially available luminescence detection devices. The corresponding IC50 values of the compounds for inhibition of PDE activity were determined from the concentration-effect curves by means of non-linear regression.
For the following compounds PDE5 inhibitory values [measured as −logIC50 (mol/l)] below 8 and between 8 and 9 have been determined. The numbers of the compounds correspond to the numbers of the examples.

The subject of test [3] is bleomycin-induced lung fibrotic remodeling. The following applies: mice, preventive and therapeutic protocols; cited from earlier work.
The test system is the same in test [4]. The following applies: rat, preventive and therapeutic protocols; cited from earlier work.
The test system of test [5] is bleomycin-induced pulmonary fibrosis and pulmonary hypertension. The following applies: in vivo; cited from earlier work.
Test [6] concerns pulmonary fibrosis. The settings on record: patients with pulmonary fibrosis, open-label trials; cited from earlier work.

T1 sequence (Q07343 whole entry): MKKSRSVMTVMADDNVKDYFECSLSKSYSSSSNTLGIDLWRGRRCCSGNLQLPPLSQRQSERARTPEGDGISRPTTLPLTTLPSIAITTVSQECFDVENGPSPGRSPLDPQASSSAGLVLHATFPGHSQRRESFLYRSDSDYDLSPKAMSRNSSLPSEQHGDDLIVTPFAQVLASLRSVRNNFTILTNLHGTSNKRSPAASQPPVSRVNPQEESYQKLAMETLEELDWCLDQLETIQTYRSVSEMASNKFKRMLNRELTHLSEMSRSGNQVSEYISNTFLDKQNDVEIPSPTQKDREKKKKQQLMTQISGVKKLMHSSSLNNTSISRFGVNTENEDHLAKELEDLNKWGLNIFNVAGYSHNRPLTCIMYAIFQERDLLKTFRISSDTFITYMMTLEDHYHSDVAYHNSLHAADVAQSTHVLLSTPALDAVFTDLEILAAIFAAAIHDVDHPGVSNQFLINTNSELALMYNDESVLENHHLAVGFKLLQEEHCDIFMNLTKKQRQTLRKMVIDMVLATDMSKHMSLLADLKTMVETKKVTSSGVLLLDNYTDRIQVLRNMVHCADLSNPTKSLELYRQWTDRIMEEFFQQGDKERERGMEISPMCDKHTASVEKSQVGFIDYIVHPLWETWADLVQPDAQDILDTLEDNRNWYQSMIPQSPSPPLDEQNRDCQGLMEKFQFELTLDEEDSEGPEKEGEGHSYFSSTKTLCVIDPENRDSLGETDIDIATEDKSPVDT

As to `CCOc1cc2c(cc1OC)C(c1ccc(C(=O)N3CCC(n4c(=O)c5sc(-c6ccc(F)cc6OC)cc5n(Cc5ccc(C)c(F)c5)c4=O)CC3)cc1)=N[C@@H]1CCSC[C@H]21` [Example 16, 3-[1-({4-[(4aR,10bR)-9-ethoxy-8-methoxy-3,4,4a,10b-tetrahydro-1H-thiopyrano[4,3-c]isoquinolin-6-yl]phenyl}carbonyl)piperidin-4-yl]-6-(4-fluoro-2-methoxyphenyl)-1-(3-fluoro-4-methylbenzyl)thieno[3,2-d]pyrimidine-2,4(1H,3H)-dione], the IC50 in test [1] and in test [2] was 1 to 10 nM each time.
Turning to `CCOc1cc2c(cc1OC)C(c1ccc(C(=O)N3CCC(n4c(=O)c5sc(-c6ccc(F)cc6OC)cc5n(Cc5ccccc5)c4=O)CC3)cc1)=N[C@@H]1CCSC[C@H]21` [Example 17, 1-benzyl-3-[1-({4-[(4aR,10bR)-9-ethoxy-8-methoxy-3,4,4a,10b-tetrahydro-1H-thiopyrano[4,3-c]isoquinolin-6-yl]phenyl}carbonyl)piperidin-4-yl]-6-(4-fluoro-2-methoxyphenyl)thieno[3,2-d]pyrimidine-2,4(1H,3H)-dione], the IC50 in test [1] is 1 to 10 nM; in test [2] it was > 10 nM.
On to `CCOc1cc2c(cc1OC)C(c1ccc(C(=O)N3CCC(n4c(=O)c5sc(-c6ccc(F)cc6C)cc5n(Cc5ccc(OC)c(F)c5)c4=O)CC3)cc1)=N[C@@H]1CCSC[C@H]21` [Example 18, 3-[1-({4-[(4aR,10bR)-9-ethoxy-8-methoxy-3,4,4a,10b-tetrahydro-1H-thiopyrano[4,3-c]isoquinolin-6-yl]phenyl}carbonyl)piperidin-4-yl]-1-(3-fluoro-4-methoxybenzyl)-6-(4-fluoro-2-methylphenyl)thieno[3,2-d]pyrimidine-2,4(1H,3H)-dione], for which the IC50 is > 10 nM in test [1] and 1 to 10 nM in test [2].
For `CCOc1cc2c(cc1OC)C(c1ccc(C(=O)N3CCC(n4c(=O)c5sc(-c6ccccc6OC)cc5n(Cc5ccc(OC)c(F)c5)c4=O)CC3)cc1)=N[C@@H]1CCSC[C@H]21` [Example 19, 3-[1-({4-[(4aR,10bR)-9-ethoxy-8-methoxy-3,4,4a,10b-tetrahydro-1H-thiopyrano[4,3-c]isoquinolin-6-yl]phenyl}carbonyl)piperidin-4-yl]-1-(3-fluoro-4-methoxybenzyl)-6-(2-methoxyphenyl)thieno[3,2-d]pyrimidine-2,4(1H,3H)-dione], in that order: 1 to 10 nM and 1 to 10 nM.
Consider `CCOc1cc2c(cc1OC)C(c1cccc(C(=O)N3CCC(n4c(=O)c5sc(-c6ccc7c(c6)OCO7)cc5n(Cc5ccc(OC)c(F)c5)c4=O)CC3)c1)=N[C@@H]1CCSC[C@H]21` [Example 20, 6-(1,3-benzodioxol-5-yl)-3-[1-({3-[(4aR,10bR)-9-ethoxy-8-methoxy-3,4,4a,10b-tetrahydro-1H-thiopyrano[4,3-c]isoquinolin-6-yl]phenyl}carbonyl)piperidin-4-yl]-1-(3-fluoro-4-methoxybenzyl)thieno[3,2-d]pyrimidine-2,4(1H,3H)-dione], for which the IC50 was > 10 nM in test [1] and 1 to 10 nM in test [2].
On to `CCOc1cc2c(cc1OC)C(c1cccc(C(=O)N3CCC(n4c(=O)c5sc(-c6ccccc6)cc5n(Cc5cc(F)c(OC)c(F)c5)c4=O)CC3)c1)=N[C@@H]1CCSC[C@H]21` [Example 21, 1-(3,5-difluoro-4-methoxybenzyl)-3-[1-({3-[(4aR,10bR)-9-ethoxy-8-methoxy-3,4,4a,10b-tetrahydro-1H-thiopyrano[4,3-c]isoquinolin-6-yl]phenyl}carbonyl)piperidin-4-yl]-6-phenylthieno[3,2-d]pyrimidine-2,4(1H,3H)-dione], for which the IC50 in test [1] was > 10 nM; in test [2], 1 to 10 nM.
Turning to `O=C(Nc1c(Cl)cncc1Cl)c1ccc(OC(F)F)c(OCC2CC2)c1` [roflumilast], the “effect on bleomycin-induced lung fibrotic remodeling” value in test [3] and in test [4] was “alleviate bleomycin-induced lung fibrotic remodeling” in each case.
`CCCc1nn(C)c2c(=O)[nH]c(-c3cc(S(=O)(=O)N4CCN(C)CC4)ccc3OCC)nc12` [sildenafil]: in test [5], the “effect on bleomycin-induced pulmonary fibrosis and pulmonary hypertension” value was “attenuates bleomycin-induced pulmonary fibrosis and pulmonary hypertension”. In addition, in test [6], the exercise tolerance result is reported as “increases exercise tolerance”; the “lung hemodynamic parameters (vascular resistance and ventilation/perfusion matching)” value was “improves lung hemodynamic parameters”.

These data come from patent US20140113877A1, “NOVEL 3,4,4A,10B-TETRAHYDRO-1H-THIOPYRANO[4,3-C] ISOQUINOLINE COMPOUNDS” (Takeda GmbH, priority 2011, published 2014).
